Reference: patent publication US10060908B2, “Oxidized cardiolipin as a pro-inflammatory factor” (MEDIRISTA BIOTECHNOLOGIES AB, priority 2008, dated 2018)

T1: Annexin A5 (Homo sapiens, UniProt P08758)
T1 construct: purchased Bender MedSystems GmbH, Austria
T1 sequence (P08758 1-320): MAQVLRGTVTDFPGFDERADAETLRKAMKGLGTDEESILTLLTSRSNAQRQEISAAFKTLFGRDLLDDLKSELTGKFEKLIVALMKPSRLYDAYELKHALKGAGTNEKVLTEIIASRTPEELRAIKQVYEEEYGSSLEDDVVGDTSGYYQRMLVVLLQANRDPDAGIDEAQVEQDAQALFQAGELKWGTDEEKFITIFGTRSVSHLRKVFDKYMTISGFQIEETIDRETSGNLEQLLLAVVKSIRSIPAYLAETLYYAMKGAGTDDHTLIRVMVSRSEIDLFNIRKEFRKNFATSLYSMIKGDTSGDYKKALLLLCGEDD

B1: Annexin A5: member of the Annexin superfamily with anti-thrombotic properties; from Bender MedSystems (protein, UniProt P08758 2-320, looked up)
Annexin A5: AQVLRGTVTDFPGFDERADAETLRKAMKGLGTDEESILTLLTSRSNAQRQEISAAFKTLFGRDLLDDLKSELTGKFEKLIVALMKPSRLYDAYELKHALKGAGTNEKVLTEIIASRTPEELRAIKQVYEEEYGSSLEDDVVGDTSGYYQRMLVVLLQANRDPDAGIDEAQVEQDAQALFQAGELKWGTDEEKFITIFGTRSVSHLRKVFDKYMTISGFQIEETIDRETSGNLEQLLLAVVKSIRSIPAYLAETLYYAMKGAGTDDHTLIRVMVSRSEIDLFNIRKEFRKNFATSLYSMIKGDTSGDYKKALLLLCGEDD

Key:
[1] = test system: THP-1 differentiated macrophages; test: Uptake of Dil-labeled OxLDL in macrophages, flow cytometry; assay type: cell-based, human; conditions: competitor 40, 80 ug/ml (LDL 40 ug/ml), Dil-OxLDL 5 ug/ml, 4 hours
Method: OxLDL (Industrylane Frederick) were incubated with Dil (Molecular Probes Engene, Oregon, USA) in lipoprotein-deficient serum (Sigma) at 37° C. for 15 hours. Then dialyzed against saline-EDTA buffer for 6 hours.
Uptake of Dil-labelled OxLDL was studied either by Flow cytometry or Fluorescence/confocal microscopy. For microscopy, The macrophages 1×10^6 were grown overnight on culture slides (Nunc, Naperville, N.Y.), For flow cytometry, The macrophages were plated in a 6-well plate at density of 1×10^6 cells/well in DMEM (INVITROGEN, USA) containing 10% FBS overnight. […] Thereafter, the cells from above were washed 4 times with 0.2% BSA/PBS and once with PBS. The cells were harvested in PBS containing 0.1% BSA and 0.01% NaN3. Mean fluorescence intensity was measured by flow cytometry (BD Biosciences, San Jose, Calif., USA). For each sample, fluorescence emission above 550 nm was measured and a minimum of 10.000 cells was analyzed.

[2] = test system: VCAM-1 (CD106); test: Adhesion molecule expression by endothelial cells, flow cytometry (VCAM-1); assay type: cell-based, human; conditions: HUVECs, 24 h
Method: (§1) Pooled human umbilical vascular endothelial cells (HUVECs) at passage 2 were purchased from Cascade Biologics, Inc (Portland, Ore). Cultures were maintained in EGM™ phenol red-free medium (Clonetics, San Diego, Calif.), containing 2% of fetal bovine serum and supplements, at 37° C. under humidified 5% CO2 conditions. All experiments were performed at passage 3 to 5. HUVECs were seeded at 6×10^4 cells/2 mL density on 6-well plates (NUNC Inc, Naperville, Ill.). After allowing endothelial cells overnight for attachment, cells were ready for stimulation.
(§2) After washing with PBS, OxCL and reduced CL (20 ug/ml) were added. For annexin A5 (From Bender MedSystems GmbH, Austria) inhibition study, OxCL was incubated with Annexin A5 (10 ug/ml) for half hour before adding to cells. After 24 hours incubation, detached floating cells were washed away, cell were harvested into Falcon FACS tubes. […] The intercellular adhesion molecule (ICAM-1) CD54 and the vascular cell adhesion molecule (VCAM-1) CD106 were studied with flow cytometry analysis equipped with CellQuest software. For each sample, 10,000 events were analyzed.

[3] = test system: ICAM-1 (CD54); test: Adhesion molecule expression by endothelial cells, flow cytometry (ICAM-1); assay type: cell-based, human; conditions: HUVECs, 24 h
Method: as §1, §2

[4] = test system: IL-6; test: IL-6 production by HUVEC, protein multiplex immunoassay; assay type: cell-based, human; conditions: HUVECs, 24 h; for IL-6 levels of the substance alone compared with the control group: 20 ug/ml
Method: HUVEC cells from above were seeded at density 10^6/2 ml into 6 well plates. Allowing cells attachment for 24 hours, OxCL (20 ug/ml) with or without Annexin A5 (20 ug/ml) and reduced CL were added and incubated for 24 hours. Cell supernatant were collected and IL-6 and IL-8 production were measured with protein multiplex immunoassay kits (from Bioscource, USA) and Bio-PIei™ system (BioRad, USA).

[5] = test system: neutrophils; test: Intracellular calcium mobilization, FURA-2AM fluorometer; assay type: cell-based, human; conditions: for MFI of calcium mobilization: within 120 seconds
Method: (§3) Human PMNs were isolated from freshly prepared buffy coats (Karolinska Hospital blood bank, Stockholm, Sweden) by dextran sedimentation, hypotonic lysis of erythrocytes and gradient centrifugation on Lymphoprep (Axis-Shield PoC AS, Oslo, Norway). PMNs were suspended at a density of 10×10^6/ml in Dulbecco's PBS (Gibco (Invitrogen), Paisley, UK). PMN purity (>95%) and viability (>98%) was determined using Hemacolor (J. T. Baker, Utrecht, Holland) and Trypan Blue (Sigma Chemical Co.) staining, respectively.
Neutrophils were added into black, 96-well plates with transparent bottom (Corning Costar; 5×10^4 cells/well), and spin down the plate at 120×g for 3 min, afterwards changing the medium containing 4 μM FURA-2AM (Fura-2 acetoxymethyl ester), or buffer as appropriate, and the cells were incubated for 30 min at 37° C. and 5% CO2. Cells were washed four times with 50 μl of a buffer solution (135 mM NaCl, 4.6 mM KCl, 1.2 mM MgCl2, 1.5 mM CaCl2, 11 mM glucose, 11 mM Hepes, pH 7.4) before a final 45 μl volume of buffer was added to each well.
The plates were transferred to a fluorometer (Fluostar™, BMG Technologies), and 50 μl of different agonists according to experimental designs or buffer solution as control were injected into individual wells and the cells were monitored for the next 120 seconds. Control wells containing cells that had not been exposed to FURA-2AM were used to subtract background auto-fluorescence. The results are given as the ratio of mean fluorescence intensity (MFI) between 340 and 380 nm, and normalized by control.

[6] = molecular target: T1, Annexin A5; test: ELISA for Annexin A5 binding to coated cardiolipins; conditions: lipid 5 ug/ml coated overnight; Annexin A5 0.32-10.24 ug/ml
Method: After five washings with PBS, the plates were blocked with 2% PBS-BSA for 2 h at room temperature. Annexin A5 were added and incubated for 1 hour. After washing, bound annexin A5 was detected by incubating subsequently with rabbit anti-human annexin V polyclonal antibodies (Hyphen Biomed, Andresy, France) 1:2000 and polyclonal goat anti-rabbit Immunoglobulins/AP (DakoCytomation) 1:3000 were used. The reaction was developed with alkaline phosphatase substrate (Sigma), and optical density (OD) was read at 405 nm with an ELISA Multiscan Plus spectrophotometer (Molecular Devices Emax, San Francisco). All samples were measured in duplicates and the coefficient of variation was below 15%.

[7] = test system: leukotriene B4; test: Leukotriene B4 release from neutrophils, EIA; assay type: cell-based; conditions: human neutrophils
Method: as §3
(§4) Analysis of leukotriene B4 Biosynthesis by EIA kit 2×10^6 macrophages were incubated with different agents according to the experimental design, and then quenched with an equal volume methanol. After acidified to pH 3-4, the samples were purified by solid-phase extraction (Supelclean™ LC-18, Supelco) and eluted in methanol. After dried under nitrogen, the samples were re-suspended in EIA buffer. The level of LTB4 was determined with LTB4 EIA kit (Cayman Chemical) by using dilutions within the linear portion of the standard curve.

[8] = test system: CD8-positive T-cells; test: Activation of CD8-positive T cells (CD69), flow cytometry; assay type: cell-based; conditions: human PBMC, 5 ug/ml over night
Method: Both CD4 and CD8 positive T cells were studied. Quadrant Q2 represent (%) T-cells positive for CD69 expressing and thus activated T-cells.
Both CD4 and CD8 positive T-cells from the cell line Human PBMC where studied in an incubation setup illustrated in FIG. 11A-F. Both T-cell types where incubated with, buffer (control), oxCL or CL to determine the effect on activation, interpreted by the expression of CD69 surface molecule after stimulation.
In this experiment the attention must be drawn to the quadrant Q2 of the flow cytometry data shown. This quadrant represents the percentage of T-cells in the population tested to be CD69 positive, e.g. activated by the stimuli prior to the data collection.

[9] = test system: LTB4; test: Leukotriene B4 biosynthesis in macrophages, EIA; assay type: cell-based; conditions: human monocyte-derived macrophages
Method: Human mononuclear cells were isolated from freshly prepared buffy coats (Karolinska Hospital blood bank, Stockholm, Sweden) by gradient centrifugation on Ficoll-Paque (Amersham Biosciences, Uppsala, Sweden). The mononuclear cells were cultured at a density of 5×10^6/ml in RPMI-1640 medium with 25 mM Hepes, 1% L-glutamine, 1% penicillin-streptomycin and 10% FBS. After 7 days, there are proximate 2×10^6 macrophages per well.
as §4

[10] = oxCL 20 ug/ml preincubated with Annexin A5 10 ug/ml

| Molecule | competition of dil-oxLDL uptake (in words) [1] | VCAM-1 expression ([2]; 20 ug/ml) | ICAM-1 expression ([3]; 20 ug/ml) | IL-6 levels of the substance alone compared with the control group [4] | MFI of calcium mobilization [5] | binding to Annexin A5 [6] | leukotriene B4 release [7] | CD69 expression (activation) of CD8-positive T cells [8] | inhibition of oxCL-induced VCAM-1 (CD106) expression [2, 10] | inhibition of oxCL-induced ICAM-1 (CD54) expression [3, 10] | inhibition of OxCL-induced LTB4 production [9] | IL-6 level, oxCL with Annexin A5 ([4]; oxCL 20 ug/ml with Annexin A5 20 ug/ml) [pg/mL] | inhibition of oxCL-induced calcium mobilization ([5]; oxCL incubated with Annexin A5) |
| --- | --- | --- | --- | --- | --- | --- | --- | --- | --- | --- | --- | --- | --- |
| Cardiolipin [CL] | did not show the competition effetcts | did not show the same effect | did not show the same effect | could not significantly increase | did not increase | can bind | did not show the similar reaction | not | – | – | – | – | – |
| Hydro heart cardiolipin [reduced CL] | not | – | – | – | – | could not bind | – | – | – | – | – | – | – |
| B1 | – | – | – | could not significantly increase | did not increase | – | – | – | significantly inhibited | significantly inhibited | greatly inhibited | 276.4 ± 28.62 | greatly inhibited |
